The target of the experiment is T1, RIP1 (Homo sapiens, UniProt Q13546).
T1 sequence (Q13546 1-671): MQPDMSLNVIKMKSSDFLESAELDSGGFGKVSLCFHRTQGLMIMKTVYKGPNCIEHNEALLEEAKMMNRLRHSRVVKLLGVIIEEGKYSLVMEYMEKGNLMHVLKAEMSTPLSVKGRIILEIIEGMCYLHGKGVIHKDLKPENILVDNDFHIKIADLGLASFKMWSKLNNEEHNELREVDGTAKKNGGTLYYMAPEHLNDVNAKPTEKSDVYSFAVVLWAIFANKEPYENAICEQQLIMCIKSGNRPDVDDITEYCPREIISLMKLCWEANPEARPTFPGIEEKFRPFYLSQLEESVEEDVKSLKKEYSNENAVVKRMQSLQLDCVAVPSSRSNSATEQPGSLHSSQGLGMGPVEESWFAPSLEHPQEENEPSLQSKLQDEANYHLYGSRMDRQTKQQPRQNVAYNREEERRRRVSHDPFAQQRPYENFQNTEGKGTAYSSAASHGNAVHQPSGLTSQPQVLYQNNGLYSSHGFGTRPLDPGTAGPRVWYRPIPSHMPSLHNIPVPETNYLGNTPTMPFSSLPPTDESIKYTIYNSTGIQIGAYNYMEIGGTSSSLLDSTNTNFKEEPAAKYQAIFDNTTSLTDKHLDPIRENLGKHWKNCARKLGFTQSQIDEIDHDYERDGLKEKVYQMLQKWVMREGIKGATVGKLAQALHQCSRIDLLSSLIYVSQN
In words: Cellular RIP1 inhibitory activity: HT-29 necroptosis (TNFα/SMAC mimetic/zVAD-FMK) CellTiter-Glo viability assay. It is filed as cell-based. The following applies: HT-29 cells, TNF-α 10 ng/ml + SMAC mimetic 6 μM + zVAD-FMK 10 μM, 20 hours, geometric mean, read-out: EC50 Values of in vitro Cellular RIP1 Inhibitory Activity. The procedure: Compounds 1-99 (denoted as Cmpd Nos. 1 through 99 in Table 2 below) of the disclosure were tested for binding and cellular RIP1 inhibitory activity following the experimental procedures described below. Cell Seeding • 1. HT-29 cells were checked every day to make sure that they were healthy and growing as expected. They were subjected to sub-culturing when they were approximately 80% confluent. • 2. The culture medium, McCOY's 5 A medium (Gibco, Cat No. 16600-082) with 10% fetal bovine serum or FBS (Gibco, Cat No. 10099-141C), was pre-warmed in a 37° C. water bath for at least 30 min. • 3. When the cells had reached a desired level of confluency of 80% in a T75 flask, the medium was aspirated, and the cells were washed with warm phosphate buffered saline or PBS two times. • 4. 2-3 ml fresh warm trypsin (Gibco, Cat No. 25200-056) solution was added to the washed cells. The flask with the cells was transferred to a 37° C. incubator. • 5. After 5 minutes, the side of the flask was tapped, and the flask was examined under a microscope for detachment of the cells to the flask. If necessary, the cells were kept in the incubator for an additional 5-10 minutes, with occasional tapping, until lifting was complete. • 6. The trypsin reaction was neutralized by transferring 6-9 ml cell culture medium to sterile 15 ml conical tubes, and by centrifuging the cell culture at 300×g for 7 minutes to pellet the cells (supernatant decanted). • 7. The cells were resuspended in fresh cell culture medium and the cell counting was performed using a hemocytometer. • 8. 100 μl of the resuspended cell culture medium containing ˜5,000 cells were transferred into each well of the sterile 96-well cell culture plate (Corning 3903) and cultured overnight at 37° C. with 5% CO2. Compound Titration and Treatment • 1. All test compounds were dissolved in DMSO (Dimethyl sulfoxide) to create a 20 mM stock. • 2. 3 μl of each compound 20 mM stock was mixed with 27 μl DMSO, and the compound solution was further diluted at a titration ratio of 1:3 (20 μl compound solution+40 μl DMSO) till the 10 points end. • 3. All culture medium was removed from assay plates filled with HT-29 cell cultures. […] 0.5 μL of the diluted compound solution was added to the corresponding 96-well assay plates. • 5. The assay plates were incubated for 20 hours at 37° C. with 5% CO2. Cell Viability Detection • 1. The CellTiter-Glo® Luminescent Cell Viability Assay was employed to detect the ATP levels of viable HT-29 cells. • 2. The CellTiter-Glo® buffer and the lyophilized substrate were equilibriated to room temperature prior to use. • 3. The CellTiter-Glo® substrate was resuspended with CellTiter-Glo® buffer, then mixed by gently vortexing to obtain a homogeneous solution. • 4. 20 μl the enzyme/substrate mixture was transferred by multi-channel pipetting into 96-well assay plates. • 5. The assay plates were placed on an orbital shaker and the contents were shaken for 3 minutes to induce cell lysis. • 6. The assay plates were incubated at room temperature for 10 minutes to stabilize the luminescent signal. • 7. The luminescence signals were read and recorded with EnVision. • 8. The geometric mean EC50 values were calculated from 10 points response dose with duplicates. In Table 2, activity is provided as follows: +++=0.1 nM≤EC50<100 nM; ++=100 nM≤EC50<1000 nM; +=1000 nM≤EC50<10000 nM.
(In general: Cellular ATP, detected with luciferase, serves as a proxy for viable cell number.)
Turning to `Cc1cnn(C)c1-c1cc(N2CCC(C(=O)N(C)Cc3nccs3)CC2)c(F)cn1` [Compound 86, 1-(2-(1,4-dimethyl-1H-pyrazol-5-yl)-5-fluoropyridin-4-yl)-N-methyl-N-(thiazol-2-ylmethyl)piperidine-4-carboxamide], the EC50 – broadly, the midpoint of the concentration-response curve – was in the range of 0.1 to 100 nM.
The value for `Cc1csc(CNC(=O)C2CCN(c3ncc(F)c(-c4c(C)cnn4C)n3)CC2)n1` [Compound 47, 1-(4-(1,4-dimethyl-1H-pyrazol-5-yl)-5-fluoropyrimidin-2-yl)-N-((4-methylthiazol-2-yl)methyl)piperidine-4-carboxamide] was 100 to 1000 nM.
Next, `Cc1cnn(C)c1-c1ncc(F)c(N2CCC(C(=O)N(O)Cc3cc(F)cc(F)c3)CC2)n1` [Compound 55, N-(3,5-difluorobenzyl)-1-(2-(1,4-dimethyl-1H-pyrazol-5-yl)-5-fluoropyrimidin-4-yl)-N-hydroxypiperidine-4-carboxamide]: 0.1 to 100 nM.
Consider `Cc1cnn(C)c1-c1nc(N2CCC(C(=O)NCc3cc(F)cc(F)c3F)CC2)ncc1F` [Compound 6, 1-(4-(1,4-dimethyl-1H-pyrazol-5-yl)-5-fluoropyrimidin-2-yl)-N-(2,3,5-trifluorobenzyl)piperidine-4-carboxamide], for which the EC50 was in the range of 0.1 to 100 nM.
Next, `Cn1ncnc1-c1nc(N2CCC(C)(C(=O)N(O)Cc3cc(F)cc(F)c3)CC2)ncc1F` [Compound 18, N-(3,5-difluorobenzyl)-1-(5-fluoro-4-(1-methyl-1H-1,2,4-triazol-5-yl)pyrimidin-2-yl)-N-hydroxy-4-methylpiperidine-4-carboxamide]: 0.1 to 100 nM; `Cc1cnn(C)c1-c1nc(N2CCC(C(=O)NCc3cscn3)CC2)ncc1F` [Compound 57, 1-(4-(1,4-dimethyl-1H-pyrazol-5-yl)-5-fluoropyrimidin-2-yl)-N-(thiazol-4-ylmethyl) piperidine-4-carboxamide]: 100 to 1000 nM.
Next, `Cn1ncnc1-c1nc(N2CCC(F)(C(=O)N(O)Cc3cc(F)cc(F)c3)CC2)ncc1F` [Compound 19, N-(3,5-difluorobenzyl)-4-fluoro-1-(5-fluoro-4-(1-methyl-1H-1,2,4-triazol-5-yl)pyrimidin-2-yl)-N-hydroxypiperidine-4-carboxamide]: 0.1 to 100 nM.
As to `Cc1cnn(C)c1-c1nc(N2CCC(C(=O)N(O)Cc3cccnc3F)CC2)ncc1F` [Compound 25, 1-(4-(1,4-dimethyl-1H-pyrazol-5-yl)-5-fluoropyrimidin-2-yl)-N-((2-fluoropyridin-3-yl)methyl)-N-hydroxypiperidine-4-carboxamide], the EC50 lay in the range of 0.1 to 100 nM.
Next, `Cc1ncc(CN(O)C(=O)C2CCN(c3ncc(F)c(-c4c(C)cnn4C)n3)CC2)s1` [Compound 24, 1-(4-(1,4-dimethyl-1H-pyrazol-5-yl)-5-fluoropyrimidin-2-yl)-N-hydroxy-N-((2-methylthiazol-5-yl)methyl)piperidine-4-carboxamide]: 0.1 to 100 nM; `CCN(Cc1nccs1)C(=O)C1CCN(c2ncc(F)c(-c3c(C)cnn3C)n2)CC1` [Compound 96, 1-(4-(1,4-dimethyl-1H-pyrazol-5-yl)-5-fluoropyrimidin-2-yl)-N-ethyl-N-(thiazol-2-ylmethyl)piperidine-4-carboxamide]: 0.1 to 100 nM.
Next, `Cc1cnn(C)c1-c1nc(N2CCN(C(=O)N(O)Cc3cc(F)cc(F)c3)CC2)ncc1F` [Compound 29, N-(3,5-difluorobenzyl)-4-(4-(1,4-dimethyl-1H-pyrazol-5-yl)-5-fluoropyrimidin-2-yl)-N-hydroxypiperazine-1-carboxamide]: 0.1 to 100 nM.
Next, `Cc1cnn(C)c1-c1nc(N2CCC(C(=O)N(O)Cc3cccnc3)CC2)ncc1F` [Compound 38, 1-(4-(1,4-dimethyl-1H-pyrazol-5-yl)-5-fluoropyrimidin-2-yl)-N-hydroxy-N-(pyridin-3-ylmethyl)piperidine-4-carboxamide]: 0.1 to 100 nM.
As for `Cc1cnn(C)c1-c1nc(N2CCC(C(=O)N(O)Cc3cncs3)CC2)ncc1F` [Compound 16, 1-(4-(1,4-dimethyl-1H-pyrazol-5-yl)-5-fluoropyrimidin-2-yl)-N-hydroxy-N-(thiazol-5-ylmethyl)piperidine-4-carboxamide], the EC50 lay in the range of 0.1 to 100 nM.
Next, `Cc1cnn(C)c1-c1nc(N2CCC(C(=O)NCc3cncs3)CC2)ncc1F` [Compound 58]: 100 to 1000 nM.
Turning to `CCN(Cc1cnn(C)c1)C(=O)C1CCN(c2ncc(F)c(-c3c(C)cnn3C)n2)CC1` [Compound 84, 1-(4-(1,4-dimethyl-1H-pyrazol-5-yl)-5-fluoropyrimidin-2-yl)-N-ethyl-N-((1-methyl-1H-pyrazol-4-yl)methyl)piperidine-4-carboxamide], the EC50 is 100 to 1000 nM.
Next, `Cc1cnn(C)c1-c1nc(N2CCC(C(=O)N(C)Cc3cnn(C)c3)CC2)ncc1F` [Compound 83, 1-(4-(1,4-dimethyl-1H-pyrazol-5-yl)-5-fluoropyrimidin-2-yl)-N-methyl-N-((1-methyl-1H-pyrazol-4-yl)methyl)piperidine-4-carboxamide]: 100 to 1000 nM; `[2H]C([2H])([2H])N(Cc1nccs1)C(=O)C1CCN(c2ncc(F)c(-c3c(C)cnn3C)n2)CC1` [Compound 77, 1-(4-(1,4-dimethyl-1H-pyrazol-5-yl)-5-fluoropyrimidin-2-yl)-N-(methyl-d3)-N-(thiazol-2-ylmethyl)piperidine-4-carboxamide]: 0.1 to 100 nM; `Cc1csc(CN(C)C(=O)C2CCN(c3ncc(F)c(-c4c(C)cnn4C)n3)CC2)n1` [Compound 71, 1-(4-(1,4-dimethyl-1H-pyrazol-5-yl)-5-fluoropyrimidin-2-yl)-N-methyl-N-((4-methylthiazol-2-yl)methyl)piperidine-4-carboxamide]: 0.1 to 100 nM.
The value for `Cn1ncnc1-c1nc(N2CCC(C(=O)N(O)Cc3cc(F)cc(F)c3)CC2)ncc1F` [Compound 15, N-(3,5-difluorobenzyl)-1-(5-fluoro-4-(1-methyl-1H-1,2,4-triazol-5-yl)pyrimidin-2-yl)-N-hydroxypiperidine-4-carboxamide] was 0.1 to 100 nM; that for `Cc1nnc(CN(C)C(=O)C2CCN(c3ncc(F)c(-c4c(C)cnn4C)n3)CC2)s1` [Compound 87, 1-(4-(1,4-dimethyl-1H-pyrazol-5-yl)-5-fluoropyrimidin-2-yl)-N-methyl-N-((5-methyl-1,3,4-thiadiazol-2-yl)methyl)piperidine-4-carboxamide] was 100 to 1000 nM.
The value for `Cc1cnn(C)c1-c1nc(N2CCC(F)(C(=O)N(O)Cc3cc(F)cc(F)c3)CC2)ncc1F` [Compound 17, N-(3,5-difluorobenzyl)-1-(4-(1,4-dimethyl-1H-pyrazol-5-yl)-5-fluoropyrimidin-2-yl)-4-fluoro-N-hydroxypiperidine-4-carboxamide] was 0.1 to 100 nM.

Values taken from patent publication US20240217963A1, “RECEPTOR-INTERACTING PROTEIN 1 INHIBITORS, PREPARATIONS, AND USES THEREOF” (SIRONAX LTD., priority 2021, published 2024).
